Results on 7 compounds are retold here after patent US11608332B2, “FGFR4 inhibitor and preparation method and use thereof” (Jiangsu Hansoh Pharmaceutical Group Co., Ltd., priority 2016, dated 2023).

The subject of data set [1] is Hep 3B cells. Put plainly: Inhibition of Hep 3B cell proliferation (CellTiter-Glo). In kind it is cell-based. As to conditions: Homo sapiens, Hep3B, 72 hours. On the procedure:
3. Experiment on the Inhibition of Hep 3B Cell Proliferation
In this experiment, the inhibitory effect of the compounds on Hep 3B cell proliferation was tested by a CellTiter-Glo method, and the half maximal inhibitory concentration (IC50) of the compounds on the activity of cell proliferation was determined.
1) A 96-well cell culture plate was seeded with 50˜100 μL of Hep 3B cell suspension at a density of 1-5×10^4 cells/ml. The culture plate was incubated in an incubator for 16-24 hours (37° C., 5% CO2).
(§1) 2) Different concentrations of the test compound in a gradient dilution were added to the cells in the culture plate. The culture plate was incubated in an incubator for 72 hours (37° C., 5% CO2).
3) 50-100 μL of CellTiter-Glo reagent were added to each well. Then, the culture plate was shaken or left to stand for 5˜30 minutes at room temperature.
(§2) 4) The chemiluminescence signal values of each plate were determined by a microplate reader.
(§3) 5) The inhibition rates were calculated according to the chemiluminescence signal values.
6) The IC50 of the compound was obtained by curve fitting according to the inhibition rates at different concentrations, and the cell activity of the specific example compounds is shown in Table 2.

In data set [2] the test system is HuH-7 cells. The experiment in a line: Inhibition of HuH-7 cell proliferation (CellTiter-Glo). In kind it is cell-based. As to conditions: Homo sapiens, 72 hours. As to the method:
4. Experiment on the Inhibition of HuH-7 Cell Proliferation
In this experiment, the inhibitory effect of the compounds on HuH-7 cell proliferation was tested by a CellTiter-Glo method, and the half maximal inhibitory concentration (IC50) of the compounds on the activity of cell proliferation was determined.
1) A 96-well cell culture plate was seeded with 50˜100 μL of HuH-7 cell suspension at a density of 1-5×10^4 cells/ml. The culture plate was incubated in an incubator for 16˜24 hours (37° C., 5% CO2).
as §1
(§4) 3) 50˜100 μL of CellTiter-Glo reagent were added to each well. Then, the culture plate was shaken or left to stand for 5˜30 minutes at room temperature.
as §2, §3
6) The IC50 of the compound was obtained by curve fitting according to the inhibition rates at different concentrations, and the cell activity of the specific Example compounds is shown in Table 2.

Data set [3] in a line: Pharmacokinetic (PK) analysis in rats. The format is in vivo, Sprague Dawley (SD) rats. As to conditions: SD rats, single intragastric administration, 5 mg/kg, plasma; for AUC(0-t) / AUC(0-inf) / half-life / MRT / Cmax: Sprague-Dawley, rat, po; for AUC(0-t): read-out: Area Under Curve AUC0-t; for AUC(0-inf): read-out: Area Under Curve AUC0-∞; for half-life: read-out: Half-Time t1/2 (converted); for MRT: read-out: Mean Residence Time MRT; for Cmax: read-out: Plasma Concentration Cmax. On the procedure: 6. Pharmacokinetic (PK) Analysis in Rats
Mode of administration: a single intragastric administration.
Formulation: 0.5% CMC and 1% Tween 80, ultrasonic dissolution.
Sampling points: 0.5, 1, 2, 4, 6, 8 and 24 hours after administration.
1. 1.0 ml of intravenous blood was collected and placed in a K2EDTA test tube.
The blood was centrifuged at room temperature at the speed of 1000˜3000×g for 5˜20 minutes to isolate the plasma, which was then stored at −80° C. 2. 160 μL of acetonitrile were added to 40 μL of plasma sample for precipitation, and then the mixture was centrifuged at the speed of 500˜2000×g for 5˜20 minutes. 3. 100 μL of treated solution were taken, and the concentration of the test compound was analyzed by LC/MS/MS. The LC/MS/MS analytical instrument was AB Sciex API 4000.
Liquid Chromatography Analysis:
Condition of Liquid chromatography: Shimadzu LC-20AD pump
Chromatographic column: phenomenex Gemiu 5 um C18 50×4.6 mm
Mobile phase: Solution A is 0.1% aqueous formic acid solution, and solution B is acetonitrile
Elution time: 0-3.5 minutes, the eluent was as follows:
Mass spectrometry analysis:
Mass spectrometer setup conditions: positive ion electrospray ionization (ESI) mode.

Data set [4] has as its target FGFR1 kinase (Homo sapiens (Human), UniProt P11362). Put plainly: Enzymologic experiment of FGFR1 (TR-FRET). The format is biochemical. As to conditions: TR-FRET kinase activity. On the procedure: 2. Enzymologic Experiment of FGFR1
In this experiment, the inhibitory effect of the compounds on FGFR1 kinase activity was tested by a fluorescence resonance energy transfer (TR-FRET) method, and the half maximal inhibitory concentration (IC50) of the compounds on the FGFR1 kinase activity was determined.
1) 1˜5 μL of FGFR1 enzymatic solution was added to a 384-well plate, and the final concentration of the enzyme was 0.1˜5 nM.
2) 1˜5 μL of diluted solution in gradient of the compound was added.
3) 1˜5 μL of a substrate mixture containing substrate polypeptide with a final concentration of 5˜50 nM and ATP with a final concentration of 10˜200 μM was added.
4) The mixture was incubated for 0.5-3 hours at room temperature.
5) 10 μL of EDTA and a test solution comprising labeled antibody were added, and the plate was incubated for 1 hour at room temperature.
6) The fluorescence signal values of each plate were determined by a microplate reader at 665 nm.
7) The inhibition rates were calculated according to the fluorescence signal values.
The IC50 of the compound was obtained by curve fitting according to the inhibition rates at different concentrations, and the enzymatic activity of the specific example compounds is shown in Table 1.

Data set [5] concerns SK-HEP-1 cells. Put plainly: Inhibition of SK-HEP-1 cell proliferation (CellTiter-Glo). The format is cell-based. As to conditions: Homo sapiens, SK-HEP1, 72 hours. On the procedure:
5. Experiment on the Inhibition of SK-HEP-1 Cell Proliferation
In this experiment, the inhibitory effect of the compounds on SK-HEP-1 cell proliferation was tested by a CellTiter-Glo method, and the half maximal inhibitory concentration (IC50) of the compounds on the activity of cell proliferation was determined.
1) A 96-well cell culture plate was seeded with 50˜100 μL of SK-HEP-1 cell suspension at a density of 1-5×10^4 cells/ml. The culture plate was incubated in an incubator for 16˜24 hours (37° C., 5% CO2).
as §1, §4, §2, §3
The IC50 of the compound was obtained by curve fitting according to the inhibition rates at different concentrations, and the cell activity of the specific Example compounds is shown in Table 2.

Sequence of FGFR1 kinase (P11362 22-822): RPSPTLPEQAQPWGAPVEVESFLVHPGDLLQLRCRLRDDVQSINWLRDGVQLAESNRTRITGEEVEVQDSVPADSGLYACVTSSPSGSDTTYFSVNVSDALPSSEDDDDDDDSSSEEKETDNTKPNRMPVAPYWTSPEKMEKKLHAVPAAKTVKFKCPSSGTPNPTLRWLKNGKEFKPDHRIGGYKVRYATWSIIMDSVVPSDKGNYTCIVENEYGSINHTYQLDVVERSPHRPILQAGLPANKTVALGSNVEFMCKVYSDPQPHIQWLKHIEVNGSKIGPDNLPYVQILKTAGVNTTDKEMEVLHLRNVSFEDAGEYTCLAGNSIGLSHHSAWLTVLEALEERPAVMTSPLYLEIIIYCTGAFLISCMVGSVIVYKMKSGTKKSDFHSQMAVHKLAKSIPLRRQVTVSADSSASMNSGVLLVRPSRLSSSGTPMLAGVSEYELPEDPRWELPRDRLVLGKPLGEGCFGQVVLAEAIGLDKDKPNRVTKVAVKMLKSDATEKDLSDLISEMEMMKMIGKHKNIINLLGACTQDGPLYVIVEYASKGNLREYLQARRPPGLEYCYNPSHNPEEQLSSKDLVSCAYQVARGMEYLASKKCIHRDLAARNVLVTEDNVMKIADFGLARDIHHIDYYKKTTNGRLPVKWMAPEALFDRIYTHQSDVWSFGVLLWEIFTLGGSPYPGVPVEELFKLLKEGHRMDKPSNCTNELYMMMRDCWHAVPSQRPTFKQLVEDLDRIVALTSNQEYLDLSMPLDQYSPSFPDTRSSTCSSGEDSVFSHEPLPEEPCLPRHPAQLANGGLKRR

In data set [1], `CO[C@H]1CCN(Cc2cc3c(nc2C=O)N(C(=O)Nc2cc(N[C@H]4CCOC4)c(C#N)cn2)CCC3)C1=O` [Example 84, N-(5-Cyano-4-(((S)-tetrahydrofuran-3-yl)amino)pyridin-2-yl)-7-formyl-6-(((S)-3-methoxy-2-carbonylpyrrolidin-1-yl)methyl)-3,4-dihydro-1,8-naphthyridin-1(2H)-carboxamide] yielded an IC50 of 2.4 nM. The same compound gave an IC50 in data set [2] of 11 nM. In data set [3], the Peak Time tmax was 2 h, the AUC(0-t) is 8860 ng·h/mL, the AUC(0-inf) turned out to be 8950 ng·h/mL and the half-life is 0.9 h. In data set [3], the MRT was 3.1 h and the Cmax stood at 2620 ng/mL. The compound also came in with an IC50 in data set [4] greater than 10000 nM. The same compound gave an IC50 in data set [5] greater than 10000 nM.
Compound `CO[C@H]1CCN(Cc2cc3c(nc2C=O)N(C(=O)Nc2cc(N[C@@H]4CCOC4)c(C#N)cn2)CCC3)C1=O` [Example 85, N-(5-Cyano-4-(((R)-tetrahydrofuran-3-yl)amino)pyridin-2-yl)-7-formyl-6-(((S)-3-methoxy-2-carbonylpyrrolidin-1-yl)methyl)-3,4-dihydro-1,8-naphthyridin-1(2H)-carboxamide] came in with an IC50 in data set [1] of 2.6 nM. It took 4.6 nM to reach half-maximal inhibition in data set [2] (IC50). In data set [3], the Peak Time tmax was 2 h, the AUC(0-t) is 7280 ng·h/mL, the AUC(0-inf) was determined as 7370 ng·h/mL and the half-life is 0.9 h. In data set [3], the MRT stood at 3.3 h and the Cmax came to 2120 ng/mL. The compound also gave an IC50 in data set [4] greater than 10000 nM. This compound also came in with an IC50 in data set [5] greater than 10000 nM.
Turning to `CO[C@@H]1CCN(Cc2cc3c(nc2C=O)N(C(=O)Nc2cc(N[C@@H]4CCOC4)c(C#N)cn2)CCC3)C1=O` [Example 87, N-(5-Cyano-4-(((R)-tetrahydrofuran-3-yl)amino)pyridin-2-yl)-7-formyl-6-(((R)-3-methoxy-2-carbonylpyrrolidin-1-yl)methyl)-3,4-dihydro-1,8-naphthyridin-1(2H)-carboxamide], 2.2 nM corresponded to half-maximal inhibition in data set [1] (IC50). The same compound registered an IC50 in data set [2] of 5.4 nM. Also, in data set [3], the Peak Time tmax is 2 h, the AUC(0-t) stood at 12400 ng·h/mL, the AUC(0-inf) was 14700 ng·h/mL and the half-life is 1.2 h. Besides, in data set [3], the MRT amounted to 2.6 h and the Cmax is 3360 ng/mL. For the same compound, the concentration for half-maximal inhibition (IC50) in data set [4] was greater than 10000 nM. The same compound came in with an IC50 in data set [5] greater than 10000 nM.
Compound `COC[C@@H](C)Nc1cc(NC(=O)N2CCCc3cc(CN4CC[C@H](OC)C4=O)c(C=O)nc32)ncc1C#N` [Example 89, N-(5-Cyano-4-(((R)-1-methoxypropan-2-yl)amino)pyridin-2-yl)-7-formyl-6-(((S)-3-methoxy-2-carbonylpyrrolidin-1-yl)methyl)-3,4-dihydro-1,8-naphthyridin-1(2H)-carboxamide] returned an IC50 in data set [1] of 1.9 nM. Moreover, the IC50 in data set [2] is 2.3 nM. Moreover, in data set [3], the Peak Time tmax turned out to be 2 h, the AUC(0-t) was 3100 ng·h/mL, the AUC(0-inf) was found to be 3130 ng·h/mL and the half-life is 1 h. In data set [3], the MRT was 2.5 h and the Cmax amounted to 1990 ng/mL. Further, the IC50 in data set [4] was greater than 10000 nM. Moreover, in data set [5], the IC50 is greater than 10000 nM.
`COC[C@@H](C)Nc1cc(NC(=O)N2CCCc3cc(CN(C)C(=O)[C@H]4CCCO4)c(C=O)nc32)ncc1C#N` [Example 93, N-(5-Cyano-4-(((R)-1-methoxypropan-2-yl)amino)pyridin-2-yl)-7-formyl-6-(((R)—N-methyltetrahydrofuran-2-carboxamido)methyl)-3,4-dihydro-1,8-naphthyridin-1(2H)-carboxamide]: in data set [1], the IC50 is 3.7 nM. The same compound registered a half-maximal inhibitory concentration (IC50) in data set [2] of 5 nM. In data set [3], the Peak Time tmax worked out at 2 h, the AUC(0-t) was found to be 9420 ng·h/mL, the AUC(0-inf) was 9480 ng·h/mL and the half-life was 0.9 h. Also, in data set [3], the MRT turned out to be 2.5 h and the Cmax was 2860 ng/mL. In data set [4], this compound showed an IC50 greater than 10000 nM. In addition, the IC50 in data set [5] is greater than 10000 nM.
`CN(Cc1cc2c(nc1C=O)N(C(=O)Nc1cc(N[C@H]3CCOC3)c(C#N)cn1)CCC2)C(=O)[C@H]1CCCO1` [Example 94, N-(5-Cyano-4-(((S)-tetrahydrofuran-3-yl)amino)pyridin-2-yl)-7-formyl-6-(((R)—N-methyltetrahydrofuran-2-carboxamido)methyl)-3,4-dihydro-1,8-naphthyridin-1 (2H)-carboxamide]: 3.9 nM corresponded to half-maximal inhibition in data set [1] (IC50). The IC50 in data set [2] came to 13.8 nM. In addition, in data set [3], the Peak Time tmax stood at 2 h, the AUC(0-t) worked out at 13000 ng·h/mL, the AUC(0-inf) was determined as 12400 ng·h/mL and the half-life is 0.8 h. In addition, in data set [3], the MRT came to 2.8 h and the Cmax stood at 3750 ng/mL. Moreover, the IC50 in data set [4] is greater than 10000 nM. In addition, the IC50 in data set [5] is greater than 10000 nM.
The compound `COCCNc1cc(NC(=O)N2CCCc3cc(CN(C)C(=O)C4CCOCC4)c(C=O)nc32)ncc1C#N` [Example 98, N-(5-Cyano-4-((2-methoxyethyl)amino)pyridin-2-yl)-7-formyl-6-((N-methyltetrahydro-2H-pyran-4-carboxamido)methyl)-3,4-dihydro-1,8-naphthyridin-1(2H)-carboxamide] displayed an IC50 in data set [1] of 2.7 nM. Further, in data set [2], the 50% inhibitory concentration (IC50) is 11.2 nM. In addition, in data set [3], the Peak Time tmax is 2 h, the AUC(0-t) came to 6700 ng·h/mL, the AUC(0-inf) amounted to 6840 ng·h/mL and the half-life is 0.9 h. Further, in data set [3], the MRT was determined as 3.1 h and the Cmax worked out at 2690 ng/mL. For the same compound, the IC50 in data set [4] is greater than 10000 nM. Also, the IC50 in data set [5] was greater than 10000 nM.
